This passage reports Ratio Ki, Ki and Kb results from ChEMBL document CHEMBL5055617, “Conformational Constraint between Aromatic Residue Side Chains in the "Message" Sequence of the Peptide Arodyn Using Ring Closing Metathesis Results in a Potent and Selective Kappa Opioid Receptor Antagonist” (J Med Chem, 2021).

The species named for one test is Homo sapiens. The test is described as follows: Selectivity index, ratio of Ki for displacement of [3H]-DAMGO from MOR (unknown origin) expressed in CHO cells to Ki for displacement of [3H]-Diprenorphine from KOR (unknown origin) expressed in CHO cells. The class given is cell-based. Background: In a radioligand displacement assay an active substance lowers the binding of a labelled ligand.

The target in another test is Mu-type opioid receptor (Homo sapiens, UniProt P35372). As to the kind of experiment: Displacement of [3H]-DAMGO from mu opioid receptor (unknown origin) expressed in CHO cells incubated for 90 mins in presence of peptidase inhibitors. Type of test: cell-based.
Mu-type opioid receptor, sequence (P35372 whole entry): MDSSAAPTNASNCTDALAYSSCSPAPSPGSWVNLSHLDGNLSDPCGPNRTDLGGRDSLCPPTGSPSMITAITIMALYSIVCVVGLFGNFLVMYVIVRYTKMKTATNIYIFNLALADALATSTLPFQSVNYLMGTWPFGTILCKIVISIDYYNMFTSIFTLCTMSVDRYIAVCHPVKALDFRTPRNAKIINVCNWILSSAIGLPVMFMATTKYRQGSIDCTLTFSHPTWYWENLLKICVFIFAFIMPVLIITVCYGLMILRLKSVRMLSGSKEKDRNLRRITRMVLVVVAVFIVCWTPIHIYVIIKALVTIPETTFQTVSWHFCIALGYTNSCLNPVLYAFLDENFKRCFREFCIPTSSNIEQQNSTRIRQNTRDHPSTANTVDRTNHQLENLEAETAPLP
The target in test [1] is T1, Kappa-type opioid receptor (Homo sapiens, UniProt P41145). The test is described as follows: Displacement of [3H]-Diprenorphine from kappa opiod receptor (unknown origin) expressed in CHO cells incubated for 90 mins in presence of peptidase inhibitors. The class given is cell-based.
T1 sequence (P41145 whole entry): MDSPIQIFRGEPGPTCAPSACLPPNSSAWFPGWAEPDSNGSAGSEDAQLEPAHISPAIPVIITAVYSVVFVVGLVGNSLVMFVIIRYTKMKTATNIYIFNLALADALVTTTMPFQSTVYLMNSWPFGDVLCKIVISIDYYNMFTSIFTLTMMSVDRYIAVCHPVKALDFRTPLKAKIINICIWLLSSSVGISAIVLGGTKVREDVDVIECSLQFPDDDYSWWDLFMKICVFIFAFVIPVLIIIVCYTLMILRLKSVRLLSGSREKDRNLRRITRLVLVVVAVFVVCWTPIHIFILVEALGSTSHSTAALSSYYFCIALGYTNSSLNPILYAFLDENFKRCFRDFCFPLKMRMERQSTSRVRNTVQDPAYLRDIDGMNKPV
The target of test [2] is T1, Kappa-type opioid receptor. The test is described as follows: Antagonist activity at kappa opioid receptor (unkown origin) expressed in CHO cell membranes assessed as inhibition of Dyn A-(1-13)NH2 stimulated [35S]GTPgammaS binding incubated for 90 mins by liquid scintillation counting method. Particulars: Membrane, filed as antagonist. The class given is functional.

pKi: −log10 of the molar value. Square brackets hold non-standard residues; d marks the D form. Peptide text beside a SMILES is read from it.

The term pKi denotes −log10 of the Ki, conventionally taken in molar units. A word on the Kb: it is the affinity of an antagonist, worked out from how it opposes an agonist. Turning to `CC(=O)N[C@@H](Cc1ccccc1)C(=O)N[C@H]1Cc2ccc(cc2)OC/C=C/COc2ccc(cc2)C[C@@H](C(=O)N[C@@H](CCCNC(=N)N)C(=O)N[C@@H](CC(C)C)C(=O)N[C@@H](CCCNC(=N)N)C(=O)N[C@@H](CCCNC(=N)N)C(=O)N[C@H](C)C(=O)N[C@@H](CCCNC(=N)N)C(=O)N2CCC[C@H]2C(=O)N[C@@H](CCCCN)C(N)=O)NC1=O`, in the test listed under Homo sapiens, the Ratio Ki came to 93. In addition, the pKi on Mu-type opioid receptor is 5.86; in test [1] it was 7.83. Besides, in test [2], the Kb came to 15 nM.
As to `C=CCOc1ccc(C[C@H](NC(=O)[C@H](Cc2cccc(OCC=C)c2)NC(=O)[C@H](Cc2ccccc2)NC(C)=O)C(=O)N[C@@H](CCCNC(=N)N)C(=O)N[C@@H](CC(C)C)C(=O)N[C@@H](CCCNC(=N)N)C(=O)N[C@@H](CCCNC(=N)N)C(=O)N[C@H](C)C(=O)N[C@@H](CCCNC(=N)N)C(=O)N2CCC[C@H]2C(=O)N[C@@H](CCCCN)C(N)=O)cc1`, the Ratio Ki in the test listed under Homo sapiens turned out to be 32. For the same compound, the results for the pKi (on Mu-type opioid receptor; in test [1]) were 5.88 and 7.39, respectively.
For `C=CCOc1ccc(C[C@H](NC(=O)[C@H](Cc2cccc(OCC=C)c2)NC(C)=O)C(=O)N[C@@H](Cc2ccccc2)C(=O)N[C@@H](CCCNC(=N)N)C(=O)N[C@@H](CC(C)C)C(=O)N[C@@H](CCCNC(=N)N)C(=O)N[C@@H](CCCNC(=N)N)C(=O)N[C@H](C)C(=O)N[C@@H](CCCNC(=N)N)C(=O)N2CCC[C@H]2C(=O)N[C@@H](CCCCN)C(N)=O)cc1` the same measures were 11, 6.32 and 7.36.
Regarding `CC(=O)N[C@H]1Cc2ccc(cc2)OC/C=C/COc2ccc(cc2)C[C@@H](C(=O)N[C@@H](Cc2ccccc2)C(=O)N[C@@H](CCCNC(=N)N)C(=O)N[C@@H](CC(C)C)C(=O)N[C@@H](CCCNC(=N)N)C(=O)N[C@@H](CCCNC(=N)N)C(=O)N[C@H](C)C(=O)N[C@@H](CCCNC(=N)N)C(=O)N2CCC[C@H]2C(=O)N[C@@H](CCCCN)C(N)=O)NC1=O`, the Ratio Ki in the test listed under Homo sapiens is 123. Besides, the figures for the pKi (on Mu-type opioid receptor; in test [1]) were 5.84 and 7.93, respectively. Besides, in test [2], the Kb stood at 288 nM.
For the compound `CC(=O)N[C@H]1Cc2cccc(c2)OC/C=C/COc2cccc(c2)C[C@@H](C(=O)N[C@@H](Cc2ccccc2)C(=O)N[C@@H](CCCNC(=N)N)C(=O)N[C@@H](CC(C)C)C(=O)N[C@@H](CCCNC(=N)N)C(=O)N[C@@H](CCCNC(=N)N)C(=O)N[C@H](C)C(=O)N[C@@H](CCCNC(=N)N)C(=O)N2CCC[C@H]2C(=O)N[C@@H](CCCCN)C(N)=O)NC1=O`, the Ratio Ki in the test filed under Homo sapiens stood at 24. The pKi on Mu-type opioid receptor is 5.79; in test [1] it was 7.17.
For `CC(=O)N[C@H]1Cc2cccc(c2)OC/C=C/COc2ccc(cc2)C[C@@H](C(=O)N[C@@H](Cc2ccccc2)C(=O)N[C@@H](CCCNC(=N)N)C(=O)N[C@@H](CC(C)C)C(=O)N[C@@H](CCCNC(=N)N)C(=O)N[C@@H](CCCNC(=N)N)C(=O)N[C@H](C)C(=O)N[C@@H](CCCNC(=N)N)C(=O)N2CCC[C@H]2C(=O)N[C@@H](CCCCN)C(N)=O)NC1=O` the same measures were 22, 6.18 and 7.53.
With `CC(=O)N[C@@H](Cc1ccccc1)C(=O)N[C@@H](Cc1ccccc1)C(=O)N[C@@H](Cc1ccccc1)C(=O)N[C@@H](CCCNC(=N)N)C(=O)N[C@@H](CC(C)C)C(=O)N[C@@H](CCCNC(=N)N)C(=O)N[C@@H](CCCNC(=N)N)C(=O)N[C@H](C)C(=O)N[C@@H](CCCNC(=N)N)C(=O)N1CCC[C@H]1C(=O)N[C@@H](CCCCN)C(N)=O` (Ac-FFFRLRR[dA]RPK-NH2), the Ratio Ki in the test filed under Homo sapiens is 174. For the same compound, the pKi on Mu-type opioid receptor was 5.76.
Regarding `C=CCOc1cccc(C[C@H](NC(C)=O)C(=O)N[C@@H](Cc2cccc(OCC=C)c2)C(=O)N[C@@H](Cc2ccccc2)C(=O)N[C@@H](CCCNC(=N)N)C(=O)N[C@@H](CC(C)C)C(=O)N[C@@H](CCCNC(=N)N)C(=O)N[C@@H](CCCNC(=N)N)C(=O)N[C@H](C)C(=O)N[C@@H](CCCNC(=N)N)C(=O)N2CCC[C@H]2C(=O)N[C@@H](CCCCN)C(N)=O)c1`, the Ratio Ki in the test filed under Homo sapiens stood at 7. Moreover, the figures for the pKi (at Mu-type opioid receptor; in test [1]) were 6.31 and 7.18, respectively.
For `C=CCOc1ccc(C[C@H](NC(=O)[C@H](Cc2ccccc2)NC(C)=O)C(=O)N[C@@H](Cc2cccc(OCC=C)c2)C(=O)N[C@@H](CCCNC(=N)N)C(=O)N[C@@H](CC(C)C)C(=O)N[C@@H](CCCNC(=N)N)C(=O)N[C@@H](CCCNC(=N)N)C(=O)N[C@H](C)C(=O)N[C@@H](CCCNC(=N)N)C(=O)N2CCC[C@H]2C(=O)N[C@@H](CCCCN)C(N)=O)cc1` the same measures were 118, 5.86 and 7.93.
For `C=CCOc1cccc(C[C@H](NC(=O)[C@H](Cc2ccccc2)NC(C)=O)C(=O)N[C@@H](Cc2cccc(OCC=C)c2)C(=O)N[C@@H](CCCNC(=N)N)C(=O)N[C@@H](CC(C)C)C(=O)N[C@@H](CCCNC(=N)N)C(=O)N[C@@H](CCCNC(=N)N)C(=O)N[C@H](C)C(=O)N[C@@H](CCCNC(=N)N)C(=O)N2CCC[C@H]2C(=O)N[C@@H](CCCCN)C(N)=O)c1` the same measures were 255, 6.08 and 8.48.
For `C=CCOc1ccc(C[C@H](NC(=O)[C@H](Cc2ccccc2)NC(C)=O)C(=O)N[C@@H](Cc2ccc(OCC=C)cc2)C(=O)N[C@@H](CCCNC(=N)N)C(=O)N[C@@H](CC(C)C)C(=O)N[C@@H](CCCNC(=N)N)C(=O)N[C@@H](CCCNC(=N)N)C(=O)N[C@H](C)C(=O)N[C@@H](CCCNC(=N)N)C(=O)N2CCC[C@H]2C(=O)N[C@@H](CCCCN)C(N)=O)cc1` the same measures were 65, 5.91 and 7.72.
`C=CCOc1ccc(C[C@H](NC(C)=O)C(=O)N[C@@H](Cc2ccc(OCC=C)cc2)C(=O)N[C@@H](Cc2ccccc2)C(=O)N[C@@H](CCCNC(=N)N)C(=O)N[C@@H](CC(C)C)C(=O)N[C@@H](CCCNC(=N)N)C(=O)N[C@@H](CCCNC(=N)N)C(=O)N[C@H](C)C(=O)N[C@@H](CCCNC(=N)N)C(=O)N2CCC[C@H]2C(=O)N[C@@H](CCCCN)C(N)=O)cc1`: the Ratio Ki in the test listed under Homo sapiens stood at 18. Also, the pKi was 6.66 at Mu-type opioid receptor and 7.92 in test [1].
For `CC(=O)N[C@@H](Cc1ccccc1)C(=O)N[C@H]1Cc2cccc(c2)OC/C=C/COc2ccc(cc2)C[C@@H](C(=O)N[C@@H](CCCNC(=N)N)C(=O)N[C@@H](CC(C)C)C(=O)N[C@@H](CCCNC(=N)N)C(=O)N[C@@H](CCCNC(=N)N)C(=O)N[C@H](C)C(=O)N[C@@H](CCCNC(=N)N)C(=O)N2CCC[C@H]2C(=O)N[C@@H](CCCCN)C(N)=O)NC1=O` the same measures were 50, 5.71 and 7.41.
For `CC(=O)N[C@@H](Cc1ccccc1)C(=O)N[C@H]1Cc2cccc(c2)OC/C=C\COc2cccc(c2)C[C@@H](C(=O)N[C@@H](CCCNC(=N)N)C(=O)N[C@@H](CC(C)C)C(=O)N[C@@H](CCCNC(=N)N)C(=O)N[C@@H](CCCNC(=N)N)C(=O)N[C@H](C)C(=O)N[C@@H](CCCNC(=N)N)C(=O)N2CCC[C@H]2C(=O)N[C@@H](CCCCN)C(N)=O)NC1=O` the same measures were 54, 6.08 and 7.81.
For `CC(=O)N[C@H]1Cc2ccc(cc2)OC/C=C/COc2cccc(c2)C[C@@H](C(=O)N[C@@H](Cc2ccccc2)C(=O)N[C@@H](CCCNC(=N)N)C(=O)N[C@@H](CC(C)C)C(=O)N[C@@H](CCCNC(=N)N)C(=O)N[C@@H](CCCNC(=N)N)C(=O)N[C@H](C)C(=O)N[C@@H](CCCNC(=N)N)C(=O)N2CCC[C@H]2C(=O)N[C@@H](CCCCN)C(N)=O)NC1=O` the same measures were 9, 6.30 and 7.25.
`C=CCOc1ccc(C[C@H](NC(C)=O)C(=O)N[C@@H](Cc2cccc(OCC=C)c2)C(=O)N[C@@H](Cc2ccccc2)C(=O)N[C@@H](CCCNC(=N)N)C(=O)N[C@@H](CC(C)C)C(=O)N[C@@H](CCCNC(=N)N)C(=O)N[C@@H](CCCNC(=N)N)C(=O)N[C@H](C)C(=O)N[C@@H](CCCNC(=N)N)C(=O)N2CCC[C@H]2C(=O)N[C@@H](CCCCN)C(N)=O)cc1`: the Ratio Ki in the test filed under Homo sapiens amounted to 8. In addition, the pKi was 6.31 on Mu-type opioid receptor and 7.21 in test [1].
As to `CC(=O)N[C@@H](Cc1ccccc1)C(=O)N[C@H]1Cc2ccc(cc2)OC/C=C/COc2cccc(c2)C[C@@H](C(=O)N[C@@H](CCCNC(=N)N)C(=O)N[C@@H](CC(C)C)C(=O)N[C@@H](CCCNC(=N)N)C(=O)N[C@@H](CCCNC(=N)N)C(=O)N[C@H](C)C(=O)N[C@@H](CCCNC(=N)N)C(=O)N2CCC[C@H]2C(=O)N[C@@H](CCCCN)C(N)=O)NC1=O`, the Ratio Ki in the test listed under Homo sapiens is 31. The pKi at Mu-type opioid receptor is 6.22; in test [1] it was 7.70.
